# Columns and labels:
# [1] = Extinction coefficient by UV/Vis; type: physicochemical; conditions: for ε(methanol): in M-1·cm-1 (unit assumed)
# Description: Four samples of increasing amounts of a test compound of Formula I (between 3 mg and 11 mg) were put into separate 10 ml flasks and dissolved in methanol. Each of the solutions and one control sample (containing no test compound) were diluted to volume. The absorption at 475 nm was measured by UV/Vis and recorded for each of the five samples. The extinction coefficient for each sample was determined accordingly.
# The extinction coefficient for the test compound at 475 nm was determined by averaging the extinction coefficient for the four samples (not including the control). The above steps were repeated (at 733 nm) to determine the extinction coefficient for the test compound at 733 nm. When determining the extinction coefficient of aggregated test compounds LuTex acetate, cholate or deoxycholate, the extinction coefficient at 733 nm is not measured. Instead, the above steps were repeated substituting 4% acetic acid/methanol for methanol.
# [2] = Solubility in H2O (deionized water)
# Description: This mixture was then shaken, and 1.5 ml of the supernatant removed by a syringe equipped with a 0.22 μm filter unit. After discarding the first 1 mL of the filtrate, the remaining 0.5 mL was collected and saved. 0.1 ml of the saved filtrate was added to a 25 ml flask and diluted with 4% Acetic Acid/Methanol solution to volume. The absorption of the diluted solution at 475 nm was measured by UVN is at 1, 4, and 24 hours after the solutions had been shaken as described above.
# [3] = Solution pH in deionized water; type: physicochemical; conditions: H2O
# Description: The test compound was mixed in 5 ml of deionized water to achieve a 2 mg/ml solution. The solution pH was measured using a Beckman pH meter.
# [4] = Octanol/water partition coefficient; type: physicochemical
# Description: The partition coefficient was measured using an adaptation of the procedure outlined in Drug Stability: Principles and Practices (AAI, Inc. Wilmington, N.C., 2nd Edition, 1995). A 10 ml solution of 10 mg/ml of the test compound of Formula I dissolved in deionized water was placed in a separator funnel, to which 10 ml of 1-octanol was added. The combined mixture was stirred. The mixture was left to separate and the absorption of the compound was measured in the water phase and in the octanol phase by UV/Vis at 413-417 nm (413-417 offers the closest match in absorbance between the octanol phase and the water phase. The octanol water partition coefficient is determined by the formula: […]
# The above steps were then repeated using a 10 ml sample of test compound at 1.0 mg/ml.
# [5] = Plasma concentration after injection in atherosclerotic rabbits; type: in vivo, NZW rabbits; conditions: rabbit, 10 mg/kg injected, 2 mg/ml solution
# Description: Plasma pK and biodistribution of the different test compounds of Formula I in plaque are determined and compared with the plasma pK and biodistribution in normal arterial walls. Sixteen normal male NZW rabbits, each weighing 3.5-4.0 kg are obtained from R&R Rabbitry in Stanwood Oreg. Each rabbit is given an intramuscular injection of Ketamine/Rompun [(8.4 mg/kg)/(1.2 mg/kg)] and allowed to relax until the anesthetic takes effect. To induce deep anesthesia, the rabbits then receive a second dose of Ketamine/Rompun [(8.4 mg/kg)/1.2 mg/kg)] via intravenous injection. To expose the abdomen and back legs, each rabbit is shaved with a size 40 blade. Their eyes are coated with lubricant eye ointment (Artificial Tears).
# A femoral artery cut down is performed on the right side of the rabbits. Lidocaine (2%) is injected subcutaneously around the femoral artery as a local anesthetic and also applied topically to prevent spasms. A No.4 French Fogarty balloon embolectomy catheter is inserted retrograde 15 cm into the abdominal aorta. The balloon is inflated with 0.5-0.75 ml of hypaque contrast and pulled 3.5 cm distally toward the femoral artery six times. The catheter is then withdrawn. […]
# A 3 ml blood sample is taken from each of the rabbits and the cholesterol level for each sample is determined and recorded. […]
# The clearance rate of the test compound is also particularly important to measure. Plasma samples from each of the test compounds (see part A of this example) are mixed with 10 mM Triton X-100 and the fluorescence optimum is measured at 745 nm by scanning between 700-800 nm using a 450 nm excitation. A standard curve is run to insure that the fluorescence of the samples lies on the linear portion of the curve. The entire fluorescence emission spectrum is observed by using both a monochromator and CCD array. This permits differentiating between the peak at 745 nm and any possible extraneous fluorescence that might have a different optimum, and tail off into the 745 nm region. Test compound accumulation is expressed as μg drug/g tissue (wet weight) or μg/ml in plasma.
"ε(4% acetate/methanol) ([1]; 4% acetate/methanol, wavelength not given)","ε(methanol) ([1]; wavelength not printed (aggregated compound, 733 nm not measured))",solubility in deionized water [2],ε(methanol) ([1]; at 475 nm),ε(methanol) ([1]; at 733 nm),pH [3],K (octanol/water) ([4]; 0.05 mg/ml),pH(octanol/water) ([4]; 0.05 mg/ml),K (octanol/water) ([4]; 0.5 mg/ml),pH(octanol/water) ([4]; 0.5 mg/ml),Plasma Concentration ([5]; 1 Hour post injection),Plasma Concentration ([5]; 5 Hours post injection),Plasma Concentration ([5]; 24 Hours post injection),Substance
135000 M⁻¹ cm⁻¹,136000,,,,,,,,,,,,"The lutetium (III) complex of: 4,5-diethyl-10,23-dimethyl-9,24-bis(3-hydroxypropyl)-16,17-bis[2-[2-(2-methoxyethoxy)ethoxy]ethoxy]pentaazapentacyclo[20.2.1.1^3,6.1^8,11.0^14,19]-heptacosa-1,3,5,7,9,11 (27),12,14,16,18,20,22(25),23-tridecaene bis deoxycholate [LuTex bis deoxycholate]"
,,50 to 80 mg/mL,,,,,,,,,,,"lutetium complex of 4,5-diethyl-10,23-dimethyl-9,24-bis(3-hydroxypropyl)-16,17-bis[2-[2-(2-methoxyethoxy)ethoxy]ethoxy]pentaazapentacyclo-[20.2.1.1^3,6.1^8,11.0^14,19]heptacosa-1,3,5,7,9,11(27),12,14,16,18,20,22(25),23-tridecaene bis gluconate [LuTex bis gluconate]"
,,2 to 2.5 mg/mL,126400,41700,5.5,0.02,5.6,0.02,5.1,3900 ng/mL,500 ng/mL,300 ng/mL,"The lutetium (III) complex of: 4,5-diethyl-10,23-dimethyl-9,24-bis(3-hydroxypropyl)-16,17-bis[2-[2-(2-methoxyethoxy)ethoxy]ethoxy]pentaazapentacyclo[20.2.1.1^3,6.1^8,11.0^14,19]-heptacosa-1,3,5,7,9,11(27),12,14,16,18,20,22(25), 23-tridecaene bis formate [LuTex bis formate]"
,,,122800,40600,6.1,0.34,6.6,,,,,,"The lutetium (III) complex of: 4,5-diethyl-10,23-dimethyl-9,24-bis(3-hydroxypropyl)-16,17-bis[2-[2-(2-methoxyethoxy)ethoxy]ethoxy]pentaazapentacyclo[20.2.1.1^3,6.1^8,11.0^14,19]-heptacosa-1,3,5,7,9,11(27),12,14,16,18,20,22(25), 23-tridecaene bis benzoate [LuTex bis benzoate]"

# — patent US7449454B2, “Metallotexaphyrin derivatives” (Pharmacyclics, Inc., priority 2000, dated 2008)
